Source: patent publication US12077503B2, “Substituted cyclic amides and their use as herbicides” (FMC CORPORATION, priority 2015, dated 2024)
Read-outs that look alike come from different tables or passages of the source.

What was measured:
Assay type in all cases: in vivo
[1] = system: sedge, umbrella (small-flower umbrella sedge, Cyperus difformis); experiment: Test B flooded paddy test; settings: Cyperus difformis, Flood, 250 g ai/ha; scale of 0 to 100 where 0 is no effect and 100 is complete control; read-out: Sedge, Umbrella plant response rating
Procedure, shortened: (§1)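 Compound goes directly into floodwater once pots are flooded 3 cm above soil, targeting plants at two leaves; the water depth is then held for the test duration. Plants sit 13–15 d in a greenhouse and are rated visually, 100 denoting complete control.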

rice (Oryra sativa) = experiment: Test B flooded paddy test; settings: Oryza sativa, Flood, 250 g ai/ha; scale of 0 to 100 where 0 is no effect and 100 is complete control; read-out: Rice plant response rating
Procedure, shortened: as §1

[2] = system: barnyardgrass (Echinochloa crus-galli); experiment: Test B flooded paddy test; settings: Echinochloa crus-galli, Flood, 250 g ai/ha; scale of 0 to 100 where 0 is no effect and 100 is complete control; read-out: Barnyardgrass plant response rating
Procedure, shortened: as §1

[3] = system: ducksalad (Heteranthera limosa); experiment: Test B flooded paddy test; settings: Heteranthera limosa, Flood, 250 g ai/ha; scale of 0 to 100 where 0 is no effect and 100 is complete control; read-out: Ducksalad plant response rating
Procedure, shortened: as §1

[4] = system: pigweed (Amaranthus retroflexus); experiment: Test A preemergence; settings: Amaranthus retroflexus, pre-emergence, 240 h; for pest or weed control at 125 g/ha: 125 g ai/ha, 0 to 100 scale where 0 is no effect and 100 is complete control; for pest or weed control at 500 g/ha: 500 g ai/ha
Kochia (Kochia scoparia) = experiment: Test A preemergence; settings: Bassia scoparia, pre-emergence, 240 h; for pest or weed control at 125 g/ha: 125 g ai/ha, 0 to 100 scale where 0 is no effect and 100 is complete control; for pest or weed control at 500 g/ha: 500 g ai/ha
Procedure, shortened: (§2)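 Ratings of 0 (no effect) to 100 (complete control) come from visual comparison with untreated controls roughly 10 d after treatment. Test chemicals, formulated in a non-phytotoxic solvent mixture with surfactant, were applied either as a preemergence directed soil spray on seeded soil or postemergence to one- to two-leaf plants 2 to 10 cm tall.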

[5] = system: ryegrass, Italian (Italian ryegrass, Lolium multiflorum); experiment: Test A preemergence; settings: Lolium multiflorum, pre-emergence, 240 h; for pest or weed control at 125 g/ha: 125 g ai/ha, 0 to 100 scale where 0 is no effect and 100 is complete control; for pest or weed control at 500 g/ha: 500 g ai/ha
Procedure, shortened: as §2

[6] = system: giant foxtail (Setaria faberii); experiment: Test A preemergence; settings: Setaria faberi, pre-emergence, 240 h; for pest or weed control at 125 g/ha: 125 g ai/ha, 0 to 100 scale where 0 is no effect and 100 is complete control; for pest or weed control at 500 g/ha: 500 g ai/ha
Procedure, shortened: as §2

[7] = system: barnyardgrass (Echinochloa crus-galli); experiment: Test A preemergence; settings: Echinochloa crus-galli, pre-emergence, 240 h; for pest or weed control at 125 g/ha: 125 g ai/ha, 0 to 100 scale where 0 is no effect and 100 is complete control; for pest or weed control at 500 g/ha: 500 g ai/ha
Procedure, shortened: as §2

[8] = system: ragweed (common ragweed, Ambrosia elatior); experiment: Test A preemergence; settings: Ambrosia artemisiifolia, pre-emergence, 240 h; for pest or weed control at 125 g/ha: 125 g ai/ha, 0 to 100 scale where 0 is no effect and 100 is complete control; for pest or weed control at 500 g/ha: 500 g ai/ha
Procedure, shortened: as §2

[9] = system: pigweed (Amaranthus retroflexus); experiment: Test A postemergence; settings: Amaranthus retroflexus, post-emergence, 240 h, 125 g ai/ha
Procedure, shortened: as §2

[10] = system: blackgrass (Alopecurus myosuroides); experiment: Test A postemergence; settings: Alopecurus myosuroides, post-emergence, 240 h, 125 g ai/ha
Procedure, shortened: as §2

corn (Zea mays) = experiment: Test A postemergence; settings: Zea mays, post-emergence, 240 h, 125 g ai/ha; for plant injury at 125 g/ha: postemergence, visual injury rating after approximately 10 d, read-out: Corn plant response rating (0 to 100 scale, 0 no effect, 100 complete control)
Procedure, shortened: as §2

[11] = system: ryegrass, Italian (Italian ryegrass, Lolium multiflorum); experiment: Test A postemergence; settings: Lolium multiflorum, post-emergence, 240 h, 125 g ai/ha
Procedure, shortened: as §2

[12] = system: ragweed (common ragweed, Ambrosia elatior); experiment: Test A postemergence; settings: Ambrosia artemisiifolia, post-emergence, 240 h, 125 g ai/ha
Procedure, shortened: as §2

[13] = preemergence, read-out: Pigweed plant response rating
[14] = Preemergence, visual injury vs untreated controls after approximately 10 d, read-out: Pigweed plant response rating (0 to 100 scale where 0 is no effect and 100 is complete control)
[15] = preemergence, read-out: Kochia plant response rating
[16] = Preemergence, visual injury vs untreated controls after approximately 10 d, read-out: Kochia plant response rating (0 to 100 scale where 0 is no effect and 100 is complete control)
[17] = preemergence, read-out: Ryegrass, Italian plant response rating
[18] = Preemergence, visual injury vs untreated controls after approximately 10 d, read-out: Ryegrass, Italian plant response rating (0 to 100 scale where 0 is no effect and 100 is complete control)
[19] = preemergence, read-out: Foxtail, Giant plant response rating
[20] = Preemergence, visual injury vs untreated controls after approximately 10 d, read-out: Foxtail, Giant plant response rating (0 to 100 scale where 0 is no effect and 100 is complete control)
[21] = preemergence, read-out: Barnyardgrass plant response rating
[22] = Preemergence, visual injury vs untreated controls after approximately 10 d, read-out: Barnyardgrass plant response rating (0 to 100 scale where 0 is no effect and 100 is complete control)
[23] = preemergence, read-out: Ragweed plant response rating
[24] = Preemergence, visual injury vs untreated controls after approximately 10 d, read-out: Ragweed plant response rating (0 to 100 scale where 0 is no effect and 100 is complete control)
[25] = postemergence, visual injury rating after approximately 10 d, read-out: Pigweed plant response rating (0 to 100 scale, 0 no effect, 100 complete control)
[26] = postemergence, visual injury rating after approximately 10 d, read-out: Blackgrass plant response rating (0 to 100 scale, 0 no effect, 100 complete control)
[27] = postemergence, visual injury rating after approximately 10 d, read-out: Ryegrass, Italian plant response rating (0 to 100 scale, 0 no effect, 100 complete control)
[28] = postemergence, visual injury rating after approximately 10 d, read-out: Ragweed plant response rating (0 to 100 scale, 0 no effect, 100 complete control)

| SMILES | pest or weed control at 250 g/ha [1] | pest or weed control at 250 g/ha (rice (Oryra sativa)) | pest or weed control at 250 g/ha [2] | pest or weed control at 250 g/ha [3] | pest or weed control at 125 g/ha [4, 13] | pest or weed control at 500 g/ha [4, 14] | pest or weed control at 125 g/ha (Kochia (Kochia scoparia); [15]) | pest or weed control at 500 g/ha (Kochia (Kochia scoparia); [16]) | pest or weed control at 125 g/ha [5, 17] | pest or weed control at 500 g/ha [5, 18] | pest or weed control at 125 g/ha [6, 19] | pest or weed control at 500 g/ha [6, 20] | pest or weed control at 125 g/ha [7, 21] | pest or weed control at 500 g/ha [7, 22] | pest or weed control at 125 g/ha [8, 23] | pest or weed control at 500 g/ha [8, 24] | pest or weed control at 125 g/ha [9, 25] | plant injury at 125 g/ha (corn (Zea mays)) | pest or weed control at 125 g/ha [11, 27] | pest or weed control at 125 g/ha [12, 28] | also measured |
| --- | --- | --- | --- | --- | --- | --- | --- | --- | --- | --- | --- | --- | --- | --- | --- | --- | --- | --- | --- | --- | --- |
| Cc1c(F)ccc([C@H]2CN(C)C(=O)[C@@H]2C(=O)Nc2ccccc2F)c1F [Compound 833] | 0% | 0% | 45% | 85% | 0% | 0% | 70% | 80% | 70% | 80% | 90% | 100% | 90% | 90% | 0% | 20% | 0% | 20% | 60% | 0% | pest or weed control at 125 g/ha [10, 26]: 40% |
| O=C1NC[C@H](c2cncc(C(F)(F)F)c2)[C@H]1C(=O)Nc1ccccc1F [Compound 887] | 0% | 0% | 50% | 65% | 0% | 0% | 0% | 20% | 0% | 0% | 80% | 90% | 90% | 90% | 0% | 0% | 0% | 0% | 0% | 0% | pest or weed control at 125 g/ha [10, 26]: 0% |
| Cc1cc([C@H]2CN(C)C(=O)[C@@H]2C(=O)Nc2ccccc2C(F)(F)F)ccc1Cl [Compound 932] | 0% | 0% | 0% | 30% | 0% |  | 40% |  |  |  | 90% |  | 90% |  |  |  |  |  |  |  | pest or weed control at 500 g/ha ([4]; preemergence, visual injury rating about 10 d after treatment, 0 to 100 scale (0 no effect, 100 complete control), read-out: Pigweed plant response rating): 30%; pest or weed control at 500 g/ha (Kochia (Kochia scoparia); preemergence, visual injury rating about 10 d after treatment, 0 to 100 scale (0 no effect, 100 complete control), read-out: Kochia plant response rating): 70%; pest or weed control at 500 g/ha ([5]; preemergence, visual injury rating about 10 d after treatment, 0 to 100 scale (0 no effect, 100 complete control), read-out: Ryegrass, Italian plant response rating): 60%; pest or weed control at 500 g/ha ([6]; preemergence, visual injury rating about 10 d after treatment, 0 to 100 scale (0 no effect, 100 complete control), read-out: Foxtail, Giant plant response rating): 100%; pest or weed control at 500 g/ha ([7]; preemergence, visual injury rating about 10 d after treatment, 0 to 100 scale (0 no effect, 100 complete control), read-out: Barnyardgrass plant response rating): 90%; pest or weed control at 500 g/ha ([8]; preemergence, visual injury rating about 10 d after treatment, 0 to 100 scale (0 no effect, 100 complete control), read-out: Ragweed plant response rating): 30%; pest or weed control at 125 g/ha ([9]; Postemergence, visual injury after approximately 10 d, 0 to 100 scale where 0 is no effect and 100 is complete control, read-out: Plant response rating, Pigweed): 40%; pest or weed control at 125 g/ha ([10]; Postemergence, visual injury after approximately 10 d, 0 to 100 scale where 0 is no effect and 100 is complete control, read-out: Plant response rating, Blackgrass): 40%; Corn plant response rating (crop injury, 0 = no effect, 100 = complete kill) at 125 g/ha (corn (Zea mays); Postemergence, visual injury after approximately 10 d, 0 to 100 scale where 0 is no effect and 100 is complete control): 20%; pest or weed control at 125 g/ha ([11]; Postemergence, visual injury after approximately 10 d, 0 to 100 scale where 0 is no effect and 100 is complete control, read-out: Plant response rating, Ryegrass, Italian): 30%; pest or weed control at 125 g/ha ([12]; Postemergence, visual injury after approximately 10 d, 0 to 100 scale where 0 is no effect and 100 is complete control, read-out: Plant response rating, Ragweed): 0% |
| CCOc1ccc([C@H]2CNC(=O)[C@@H]2C(=O)Nc2ccccc2F)cc1 [Compound 906] | 0% | 0% | 0% | 0% | 0% | 0% | 0% | 0% | 0% | 0% | 0% | 0% | 0% | 0% | 0% | 0% | 0% | 0% | 0% | 0% |  |
| O=C1NC[C@H](c2cc(F)c(C(F)(F)F)c(F)c2)[C@H]1C(=O)Nc1ccc(F)cc1F [Compound 840] | 0% | 0% | 0% | 80% | 30% | 60% | 0% | 70% | 0% | 20% | 90% | 90% | 80% | 90% | 0% | 0% | 0% | 30% | 0% | 0% |  |
